Test results from patent publication EP2125859B1, “ESTRATRIENE DERIVATIVES AND THEIR USES AS 17BETA-HYDROXYSTEROID DEHYDROGENASE INHIBITORS” (Abbott Products GmbH, priority 2006, dated 2008).

How the values were obtained:
[1] = biological target: T1, recombinant human 17β-HSD1 (Homo sapiens, UniProt P14061); test: Inhibition of recombinant human 17β-HSD1 (HPLC assay, conversion of 3H-estrone to estradiol); type: biochemical; conditions: 0.5 h, 30 nM 3H-estrone, 1 mM NADPH, 30 min at RT, read-out: inhibition of rec. 17β-HSD1; for inhibition at 0.1 µM: 100 nM inhibitor; for inhibition at 1 µM: 1 µM inhibitor
T1 construct: made in house; host or cells: Sf9 insect cells (baculovirus, Bac to Bac Expression System)
T1 sequence (P14061 1-328): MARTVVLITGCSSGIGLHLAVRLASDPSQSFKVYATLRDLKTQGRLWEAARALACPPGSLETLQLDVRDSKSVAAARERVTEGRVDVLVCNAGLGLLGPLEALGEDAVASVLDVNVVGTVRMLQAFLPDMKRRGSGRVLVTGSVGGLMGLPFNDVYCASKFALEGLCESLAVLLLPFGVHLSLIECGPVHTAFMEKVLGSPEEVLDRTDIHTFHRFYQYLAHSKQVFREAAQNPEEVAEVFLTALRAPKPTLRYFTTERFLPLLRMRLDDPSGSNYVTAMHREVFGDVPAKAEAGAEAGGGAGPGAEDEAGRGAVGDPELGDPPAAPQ
Description: Inhibition of the 17β-hydroxysteroid dehydrogenase type 1 enzyme 17β-HSD1 purification: Recombinant baculovirus was generated by the "Bac to Bac Expression System" (Invitrogen). Recombinant bacmid was transfected to Sf9 insect cells using "Cellfectin Reagent" (Invitrogen). 60h later cells were harvested; the microsomal fraction was isolated as described by Puranen et al. (1994). Aliquots were stored frozen until determination of enzymatic activity.
Assay - Inhibition of recombinant human 17β-HSD1: Recombinant protein (0.1 µg/ml) was incubated in 20 mM KH2PO4 pH 7.4 with 30 nM 3H-estrone and 1 mM NADPH for 30 min at RT, in the presence of potential inhibitors at concentrations of 1 µM or 0.1 µM. Inhibitor stock solutions were prepared in DMSO. Final concentration of DMSO was adjusted to 1 % in all samples. The enzyme reaction was stopped by addition of 10 % trichloroacetic acid (final concentration). Samples were centrifuged in a microtiter plate at 4000 rpm for 10 min. Supernatants were applied to reverse phase HPLC on a Waters Symmetry C18 column, equipped with a Waters Sentry Guard column. Isocratic HPLC runs were performed at RT at a flow rate of 1 ml/min of acetonitrile:water 48:52 as running solvent. Radioactivity was monitored in the eluate by a Packard Flow Scintillation Analyzer. Total radioactivity for estrone and estradiol were determined in each sample and percent conversion of estrone to estradiol was calculated according to the following formula: [formula] [formula]
The values "% inhibition" were determined for exemplified compounds, and the results are summarized in table 4 (for 17β-HSD1). table 4: HSD 1 inhibition values in % of selected compounds of formula I

17β-HSD3 = biological target: T2, 17β-HSD3 (Homo sapiens, UniProt P37058); test: Inhibition of 17β-HSD3 in MCF-7 cell lines stably expressing the enzyme (HPLC, tritium labeled androstenedione); type: cell-based; conditions: MCF7, MCF-7 cells expressing 17β-HSD3, androstenedione 2 nM
T2 construct: expressed in transfected cells; host or cells: MCF-7 cells stably expressing 17β-HSD3
T2 sequence (P37058 1-310): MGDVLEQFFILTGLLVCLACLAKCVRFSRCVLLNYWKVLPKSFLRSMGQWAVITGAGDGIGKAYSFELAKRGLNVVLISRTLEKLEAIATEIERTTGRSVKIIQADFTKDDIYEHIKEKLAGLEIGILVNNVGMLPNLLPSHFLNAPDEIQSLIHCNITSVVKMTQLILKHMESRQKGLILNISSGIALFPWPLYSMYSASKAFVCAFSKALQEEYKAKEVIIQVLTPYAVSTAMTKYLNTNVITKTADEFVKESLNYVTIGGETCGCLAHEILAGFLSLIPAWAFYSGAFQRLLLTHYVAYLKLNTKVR
Description: The compounds were screened in respect of 17β-HSD3 enzyme activity in vitro on established MCF-7 cell lines, each stably expressing the 17β-HSD3 enzyme. The interconversion of substrate by 17β-HSD3 and the 17β-HSD3 inhibiting activity of chemical compounds in these cell lines were detected by HPLC system.
Varying amounts of the test compounds were incubated in the growth medium of the 17β-HSD3 expressing cells together tritium labeled androstenedione (2 nM). The medium samples were removed after exact incubation time and the reaction is stopped by trichloroacetic acid (TCA). The samples were analyzed by HPLC-coupled flow scintillation analysis.
Conversion: The 17β-HSD3 inhibiting activity of an individual test compound was calculated by comparing the conversion of a control sample without any test compound (referred to as "Negative Control") to the (reduced) conversion of the test sample containing the particular compound to be tested (referred to as "Test Sample"). [formula]
Two concentrations of each compound were used. The number of the compound refers to the numbers indicated in the Experimental Section.
The values "% inhibition" were determined for exemplified compounds, and the results are summarized in table 5 (HSD 3). table 5: 17β-HSD3 inhibition values in % of selected compounds of formula I

| Structure (SMILES) | inhibition at 0.1 µM [1] [%] | inhibition at 1 µM [1] [%] | inhibition at 1 µM (17β-HSD3) [%] | inhibition at 10 µM (17β-HSD3) [%] |
| --- | --- | --- | --- | --- |
| C[C@]12CC[C@@H]3c4ccc(O)cc4CC[C@H]3[C@@H]1[C@H](CCCc1cn(-c3ccc(F)cc3F)nn1)CC2=O [Compound 301, 15β-{3-[1-(2,4-difluorophenyl)-1H-1,2,3-triazol-4-yl]propyl}-3-hydroxyestra-1(10),2,4-trien-17-one] | 82 | 88 | 24 | 57 |
| C[C@]12CC[C@@H]3c4ccc(O)cc4CC[C@H]3[C@@H]1[C@H](CCCc1cn(-c3ccc(F)cc3F)nn1)CC2(F)F [Compound 302, 15-{3-[1-(2,4-difluorophenyl)-1H-1,2,3-triazol-4-yl]propyl}-17,17-difluoroestra-1(10),2,4-trien-3-ol] | 88 | 96 | 13 | 70 |
| C[C@]12CC[C@@H]3c4ccc(O)cc4CC[C@H]3[C@@H]1[C@H](CCCn1cc(CCc3ccccc3)nn1)CC2=O [Compound 8, 3-Hydroxy-15β-[3-(4-phenethyl-[1,2,3]triazol-1-yl)-propyl]-estra-1,3,5(10)-trien-17-one] | 81 | 93 | 6 | 61 |
| C[C@]12CC[C@@H]3c4ccc(O)cc4CC[C@H]3[C@@H]1[C@H](CCn1cc(-c3ccccc3C(F)(F)F)nn1)CC2=O [Compound 19, 3-Hydroxy-15β-{2-[4-(2-trifluoromethyl-phenyl)-[1,2,3]triazol-1-yl]-ethyl}-estra-1,3,5(10)-trien-17-one] | 71 | 87 | 11 | 52 |
| CC(C)Cc1cn(CCC[C@@H]2CC(=O)[C@@]3(C)CC[C@@H]4c5ccc(O)cc5CC[C@H]4[C@H]23)nn1 [Compound 24, 3-Hydroxy-15β-[3-(4-iso-butyl-[1,2,3]triazol-1-yl)-propyl]-estra-1,3,5(10)-trien-17-one] | 52 | 85 | 24 | 64 |
| CC(C)Cc1cn(CC[C@@H]2CC(=O)[C@@]3(C)CC[C@@H]4c5ccc(O)cc5CC[C@H]4[C@H]23)nn1 [Compound 12, 3-Hydroxy-15β-[2-(4-iso-butyl-[1,2,3]triazol-1-yl)-ethyl]-estra-1,3,5(10)-trien-17-one] | 86 | 92 | – | 37 |
| C[C@]12CC[C@@H]3c4ccc(O)cc4CC[C@H]3[C@@H]1[C@@H](CCCn1cc(-c3cccc(O)c3)nn1)CC2=O [Compound 22, 3-Hydroxy-15-[3-(4-m-hydroxyphenyl-[1,2,3]triazol-1-yl)-propyl]-13-methyl-6,7,8,9,11,12,13,14,15,16-decahydro-cyclopenta[a]phenanthren-17-one] | 48 | 86 | 82 | – |
| CC(C)CCc1cn(CCC[C@@H]2CC(=O)[C@@]3(C)CC[C@@H]4c5ccc(O)cc5CC[C@H]4[C@H]23)nn1 [Compound 17, 3-Hydroxy-15β-{3-[4-(3-methyl-butyl)-[1,2,3]triazol-1-yl]-propyl}-estra-1,3,5(10)-trien-17-one] | 61 | 88 | 3 | 50 |
